Laboratory results from publication PMC6260965 (Structure (London, England : 1993), 2018).
Read-outs that look alike come from different tables or passages of the source.

Key:
[1] = system: GT3 double substitution variant Y56H/Q168R; details: GT3 Y56H/Q168R selected in vitro; ref Ng et al., 2017; cited from earlier work
[2] = system: NS3/4A protease Y56H/D168A versus sum of Y56H and D168A; test: Double mutant cycle analysis from inhibition constants; details: calculated from measured Ki; negative coupling
NS3/4A protease D168A [3] = test: biochemical; type: biochemical, HCV; details: D168A relative to WT protease
NS3/4A protease D168A [4] = target: NS3/4A protease D168A (Hepatitis C virus genotype 1a, UniProt P27958, D1194A); test: biochemical; type: biochemical, HCV
NS3/4A protease Y56H = NS3/4A protease Y56H (Hepatitis C virus genotype 1a, UniProt P27958, Y1082H); test: Enzyme inhibition assay, Y56H protease; type: biochemical, HCV
[5] = system: NS3/4A protease Y56H/D168A; test: Enzyme inhibition assay, Y56H/D168A protease; type: biochemical, HCV; details: for loss in potency in enzyme inhibition assays: Y56H/D168A relative to WT protease
[6] = target: NS3/4A protease Y56H/D168A (Hepatitis C virus genotype 1a, UniProt P27958, D1194A/Y1082H); test: Enzyme inhibition assay, Y56H/D168A protease; type: biochemical, HCV
[7] = system: HCV Con1 (genotype 1b) reporter replicon, H77 NS3 protease region with Y56H/D168A; test: Cell-based drug susceptibility; details: Y56H/D168A compared to WT
[8] = system: HCV Con1 (genotype 1b) reporter replicon, H77 NS3 protease region with D168A; test: Cell-based drug susceptibility; details: D168A compared to WT

Row | Compound | difference in ΔΔG for the double mutant compared to sum of the single mutants [2] | potency loss in enzyme inhibition assays (NS3/4A protease D168A [3]) [fold] | loss in potency in enzyme inhibition assays [5] | lower potency in replicon assays [7] [fold] | also measured
1 | CC(C)(C)[C@@H]1NC(=O)O[C@@H]2CCC[C@H]2OC/C=C/C(F)(F)c2nc3ccccc3nc2O[C@@H]2C[C@@H](C(=O)N[C@]3(C(=O)NS(=O)(=O)C4(C)CC4)C[C@H]3C(F)F)N(C2)C1=O [glecaprevir] |  |  |  |  | loss in potency [1]: ~1400 fold
2 | CC(C)(C)OC(=O)N[C@H]1CCCCC/C=C\[C@@H]2C[C@@]2(C(=O)NS(=O)(=O)C2CC2)NC(=O)[C@@H]2C[C@@H](OC(=O)N3Cc4cccc(F)c4C3)CN2C1=O [danoprevir] | ~ 0.06 kcal/mol | 200 | 500 fold |  | Ki (NS3/4A protease D168A [4]): 199 nM; Ki (NS3/4A protease Y56H): 3 nM; additional reduction in potency with Y56H ([5]; Y56H/D168A relative to D168A, enzyme inhibition): 2.5 fold; Ki [6]: 520 nM
3 | Cc1cnc(C(=O)N[C@H]2CCCCC/C=C\[C@@H]3C[C@@]3(C(=O)NS(=O)(=O)C3CC3)NC(=O)[C@@H]3C[C@@H](Oc4nc5ccccc5c5ccccc45)CN3C2=O)cn1 [paritaprevir] | 1 to 2 kcal/mol |  | 8500 fold | 2941 | 
4 | C=C[C@@H]1C[C@]1(NC(=O)[C@@H]1C[C@@H]2CN1C(=O)[C@H](C(C)(C)C)NC(=O)O[C@@H]1C[C@H]1CCCCCc1nc3ccc(OC)cc3nc1O2)C(=O)NS(=O)(=O)C1CC1 [grazoprevir] | 1 to 2 kcal/mol | > 200 | 2500 fold | 1923 | potency loss in replicon assays [8]: over 100 fold
5 | CCc1nc2ccc(OC)cc2nc1O[C@@H]1C[C@H]2C(=O)N[C@]3(C(=O)NS(=O)(=O)C4CC4)C[C@H]3/C=C\CCCCC[C@H](NC(=O)OC(C)(C)C)C(=O)N2C1 [5172-mcP1P3] |  |  | 200–400 fold |  | Ki (NS3/4A protease D168A [4]; read-out: inhibition constant (Ki), D168A variant): 82.4 nM
